Assays:
[1] = pain and tissue reaction at the injection site; assay type: in vivo; conditions: compared with 2-pyrrolidone
[2] = cited from earlier work
Rat = conditions: cited from earlier work
[3] = solubility of avermectins/ivermectin in N-methylpyrrolidone and 2-pyrrolidone formulations; water tolerance (clear solution becomes milky or cloudy as excess water is added); assay type: physicochemical
Method: Both N-methylpyrrolidone and 2-pyrrolidone have been approved as a safe solvent for injection, but only for oxytetracycline; which is chemically unlike ivermectin. […] Ivermectin can be present in the formulation from 0.1% to 40% (w/v). N-methylpyrrolidone (also known as M-pyrole) can be present from 5% to essentially 100% (v/v) of the formulation. The specific gravity of N-methylpyrrolidone is 1.027 at 25° C. relative to water at 4° C. Additional compounds can be included as desired, e.g. propylene glycol up to 95% by volume, water up to 90% by volume and Clorsulon (an antiparasitic agent frequently co-administered with ivermectin) up to 40% by weight. The formulation can contain water up to amounts which limit avermectin solubility. The maximum amount of water which can be included depends upon the amount of avermectin and the presence of co-solvents such as propylene glycol, and presence of detergent, as illustrated in the Examples. The amount of water which can be present is limited only by avermectin solubility. The presence of too much water can be readily detected because the clear solution becomes milky or cloudy as excess water is added. Where N-methylpyrrolidone is the sole solvent, up to 30% by volume of water can be included in a formulation containing 1% (w/v) ivermectin. If less ivermectin is present, the amount of water can be increased somewhat. If 10% (v/v) propylene glycol is a co-solvent with 20% (w/v) N-methylpyrrolidone, 0.5% ivermectin remains soluble in the presence of water up to about 70% by volume. Compositions containing 2-pyrrolidone completely or partially substituted for N-methylpyrrolidone in the exemplified formulations are equivalent in their solubility properties. As noted above, compositions containing N-methylpyrrolidone are preferred.

[4] = cited from earlier work; remark: listed apart in the source

Compound | pain at the injection site [1] | tissue reaction [1] | time in which most of the compound is eliminated by the kidneys [2] [h] | LD50 (Rat; Rat, oral) [mg/kg] | oral toxicity (Rat) | water in the presence of which ivermectin remains soluble ([3]; 0.5% ivermectin, 10% (v/v) propylene glycol co-solvent with 20% (w/v) N-methylpyrrolidone) | solubility in 2-pyrrolidone ([3]; 2-pyrrolidone, to permit formulation of therapeutic compositions) | amount of water which can be included (limited by avermectin solubility) ([3]; N-methylpyrrolidone sole solvent, 1% (w/v) ivermectin) | solubility in N-methylpyrrolidone ([3]; N-methylpyrrolidone, to permit formulation of therapeutic compositions) | solubility in 1-butanol ([4]; 1-butanol) [mg/mL] | solubility in 2-propanol ([4]; 2-propanol) [mg/mL] | solubility in acetone ([4]; acetone) [mg/mL] | solubility in methylethylketone ([4]; methylethylketone) [mg/mL] | solubility in water ([4]; water, room temperature)
CN1CCCC1=O [N-methylpyrrolidone] | less pain at the injection site | less tissue reaction | ≤ 24 | 4200 | very low order of oral toxicity | – | – | – | – | – | – | – | – | –
22,23-dihydroavermectin B1 [ivermectin] | – | – | – | – | – | up to 70 % by volume | sufficiently soluble | up to 30 % by volume | sufficiently soluble | 330 | 70 | 81 | 320 | about 0.005 mg per ml
